We go through 23 compounds from ChEMBL document CHEMBL5325488, “Discovery of SMD-3040 as a Potent and Selective SMARCA2 PROTAC Degrader with Strong in vivo Antitumor Activity” (J Med Chem, 2023).

What all share (assay type): cell-based
The target in assay [1] is T1, von Hippel-Lindau disease tumor suppressor/SWI/SNF-related matrix-associated actin-dependent regulator of chromatin subfamily A member 2 (Homo sapiens, UniProt P51531+P40337). The assay is described as follows: PROTAC activity at VHL/C-terminal HiBiT fused SMARCA2 in human HeLa cells assessed as induction of SMARCA2 degradation incubated for 24 hrs by Nano-Glo HiBiT analysis. For orientation: The HiBiT peptide binds its large partner to form an active luciferase.
Target sequence in this assay (P51531 whole entry, the tested form may be a part): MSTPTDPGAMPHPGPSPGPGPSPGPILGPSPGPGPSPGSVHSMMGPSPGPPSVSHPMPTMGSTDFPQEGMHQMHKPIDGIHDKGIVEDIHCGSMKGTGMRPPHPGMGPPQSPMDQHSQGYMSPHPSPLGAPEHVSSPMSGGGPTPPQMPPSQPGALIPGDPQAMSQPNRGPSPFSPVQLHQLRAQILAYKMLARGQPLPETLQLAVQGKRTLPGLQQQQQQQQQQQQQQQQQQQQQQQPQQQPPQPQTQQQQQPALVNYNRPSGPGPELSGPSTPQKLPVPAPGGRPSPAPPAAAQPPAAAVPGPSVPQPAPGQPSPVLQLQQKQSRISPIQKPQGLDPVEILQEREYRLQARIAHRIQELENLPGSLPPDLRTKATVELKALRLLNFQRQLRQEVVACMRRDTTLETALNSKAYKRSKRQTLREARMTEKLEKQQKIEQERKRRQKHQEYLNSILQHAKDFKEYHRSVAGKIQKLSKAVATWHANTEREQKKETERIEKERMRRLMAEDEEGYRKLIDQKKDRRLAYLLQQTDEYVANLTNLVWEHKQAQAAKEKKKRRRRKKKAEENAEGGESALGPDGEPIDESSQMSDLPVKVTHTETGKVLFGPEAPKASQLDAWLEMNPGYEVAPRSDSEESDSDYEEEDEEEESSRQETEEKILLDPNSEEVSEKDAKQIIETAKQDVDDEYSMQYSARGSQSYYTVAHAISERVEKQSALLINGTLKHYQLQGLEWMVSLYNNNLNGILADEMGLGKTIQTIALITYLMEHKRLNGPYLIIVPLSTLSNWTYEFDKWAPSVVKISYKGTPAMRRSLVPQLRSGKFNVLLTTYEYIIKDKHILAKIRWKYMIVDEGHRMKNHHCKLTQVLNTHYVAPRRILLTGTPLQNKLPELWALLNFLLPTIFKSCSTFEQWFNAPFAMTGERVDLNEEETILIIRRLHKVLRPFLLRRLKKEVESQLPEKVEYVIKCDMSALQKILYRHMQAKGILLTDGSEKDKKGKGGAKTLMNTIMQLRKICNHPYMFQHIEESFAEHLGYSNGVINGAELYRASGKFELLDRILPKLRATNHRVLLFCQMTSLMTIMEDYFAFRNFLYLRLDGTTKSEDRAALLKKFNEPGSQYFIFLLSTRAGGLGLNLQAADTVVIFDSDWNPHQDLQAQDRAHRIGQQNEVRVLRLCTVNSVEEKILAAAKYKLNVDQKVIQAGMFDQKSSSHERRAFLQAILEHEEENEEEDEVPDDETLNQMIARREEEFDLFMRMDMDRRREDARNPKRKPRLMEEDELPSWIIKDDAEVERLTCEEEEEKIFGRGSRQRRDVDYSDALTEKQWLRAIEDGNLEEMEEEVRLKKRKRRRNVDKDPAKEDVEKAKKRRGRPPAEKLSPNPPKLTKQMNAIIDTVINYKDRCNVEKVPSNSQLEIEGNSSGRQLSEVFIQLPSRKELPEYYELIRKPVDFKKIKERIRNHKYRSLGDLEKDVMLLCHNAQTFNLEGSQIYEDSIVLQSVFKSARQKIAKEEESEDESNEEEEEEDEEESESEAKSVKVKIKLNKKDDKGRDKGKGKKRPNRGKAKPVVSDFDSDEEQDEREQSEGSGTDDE
Target sequence in this assay (P40337 whole entry, the tested form may be a part): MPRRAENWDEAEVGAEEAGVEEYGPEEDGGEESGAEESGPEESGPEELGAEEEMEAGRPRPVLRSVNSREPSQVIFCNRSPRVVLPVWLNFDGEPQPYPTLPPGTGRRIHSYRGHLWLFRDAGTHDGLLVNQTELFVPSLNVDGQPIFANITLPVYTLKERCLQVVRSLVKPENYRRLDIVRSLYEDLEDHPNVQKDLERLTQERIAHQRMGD

The target in assay [2] is T1, von Hippel-Lindau disease tumor suppressor/SWI/SNF-related matrix-associated actin-dependent regulator of chromatin subfamily A member 2. The assay is described as follows: PROTAC activity at VHL/C-terminal HiBiT fused SMARCA2 in human HeLa cells assessed as induction of SMARCA2 degradation by measuring maximal efficacy incubated for 24 hrs by Nano-Glo HiBiT analysis relative to control.
Target sequence in this assay (P40337 whole entry, looked up, the tested form may be a part): as the sequence (P40337 whole entry, the tested form may be a part) above
Target sequence in this assay (P51531 whole entry, looked up, the tested form may be a part): as the sequence (P51531 whole entry, the tested form may be a part) above

Assay [3] addresses T2, von Hippel-Lindau disease tumor suppressor/SWI/SNF-related matrix-associated actin-dependent regulator of chromatin subfamily A member 4 (Homo sapiens, UniProt P51532+P40337). The assay is described as follows: PROTAC activity at VHL/C-terminal HiBiT fused SMARCA4 in human HeLa cells assessed as induction of SMARCA4 degradation incubated for 24 hrs by Nano-Glo HiBiT analysis.
Target sequence in this assay (P51532 whole entry, the tested form may be a part): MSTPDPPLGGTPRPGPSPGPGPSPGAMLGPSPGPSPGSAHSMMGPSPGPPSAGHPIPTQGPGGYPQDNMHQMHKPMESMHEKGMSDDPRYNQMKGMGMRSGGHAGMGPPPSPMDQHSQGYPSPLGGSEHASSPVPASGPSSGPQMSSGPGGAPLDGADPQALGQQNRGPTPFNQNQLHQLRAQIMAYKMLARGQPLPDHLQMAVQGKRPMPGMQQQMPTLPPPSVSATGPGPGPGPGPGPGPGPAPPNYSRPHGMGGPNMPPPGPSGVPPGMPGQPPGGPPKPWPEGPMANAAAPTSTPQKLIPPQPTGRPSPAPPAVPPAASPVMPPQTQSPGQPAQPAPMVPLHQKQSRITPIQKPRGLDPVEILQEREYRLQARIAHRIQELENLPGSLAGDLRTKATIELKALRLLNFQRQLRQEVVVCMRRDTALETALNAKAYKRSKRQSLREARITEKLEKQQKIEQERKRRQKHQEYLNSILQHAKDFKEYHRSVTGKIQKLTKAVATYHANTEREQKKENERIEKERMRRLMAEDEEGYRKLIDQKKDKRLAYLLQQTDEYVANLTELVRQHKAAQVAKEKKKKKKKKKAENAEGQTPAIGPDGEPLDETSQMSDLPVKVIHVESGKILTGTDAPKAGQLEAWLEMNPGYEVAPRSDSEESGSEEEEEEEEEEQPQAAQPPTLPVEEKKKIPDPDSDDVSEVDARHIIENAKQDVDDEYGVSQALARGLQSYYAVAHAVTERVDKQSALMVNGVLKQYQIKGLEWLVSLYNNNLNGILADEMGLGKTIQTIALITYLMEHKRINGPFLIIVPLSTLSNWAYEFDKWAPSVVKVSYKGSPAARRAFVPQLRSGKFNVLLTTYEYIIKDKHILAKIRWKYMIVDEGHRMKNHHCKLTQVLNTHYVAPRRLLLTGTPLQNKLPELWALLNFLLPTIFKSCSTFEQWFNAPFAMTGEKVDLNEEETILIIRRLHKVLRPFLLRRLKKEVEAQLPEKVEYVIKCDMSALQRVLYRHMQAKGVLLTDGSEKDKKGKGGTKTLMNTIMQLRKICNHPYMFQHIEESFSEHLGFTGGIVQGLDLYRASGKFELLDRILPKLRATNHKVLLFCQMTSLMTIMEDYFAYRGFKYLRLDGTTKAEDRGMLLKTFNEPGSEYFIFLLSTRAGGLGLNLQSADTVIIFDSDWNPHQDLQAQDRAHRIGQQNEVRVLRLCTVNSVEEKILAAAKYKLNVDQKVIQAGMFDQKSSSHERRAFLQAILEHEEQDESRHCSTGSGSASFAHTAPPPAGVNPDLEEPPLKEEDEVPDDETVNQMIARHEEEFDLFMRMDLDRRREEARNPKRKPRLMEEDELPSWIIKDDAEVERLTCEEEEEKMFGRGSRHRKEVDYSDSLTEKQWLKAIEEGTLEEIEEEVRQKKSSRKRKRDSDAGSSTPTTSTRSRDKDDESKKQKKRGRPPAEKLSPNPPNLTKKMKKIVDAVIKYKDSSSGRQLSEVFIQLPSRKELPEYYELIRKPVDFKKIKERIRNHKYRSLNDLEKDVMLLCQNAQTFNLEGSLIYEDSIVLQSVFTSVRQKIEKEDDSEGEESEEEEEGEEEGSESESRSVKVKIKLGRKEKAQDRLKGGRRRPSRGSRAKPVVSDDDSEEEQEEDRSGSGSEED
Target sequence in this assay (P40337 whole entry, the tested form may be a part): as the sequence (P40337 whole entry, the tested form may be a part) above

The target in assay [4] is T2, von Hippel-Lindau disease tumor suppressor/SWI/SNF-related matrix-associated actin-dependent regulator of chromatin subfamily A member 4. The assay can be described thus: PROTAC activity at VHL/C-terminal HiBiT fused SMARCA4 in human HeLa cells assessed as induction of SMARCA4 degradation by measuring maximal efficacy incubated for 24 hrs by Nano-Glo HiBiT analysis relative to control.
Target sequence in this assay (P40337 whole entry, looked up, the tested form may be a part): as the sequence (P40337 whole entry, the tested form may be a part) above
Target sequence in this assay (P51532 whole entry, looked up, the tested form may be a part): as the sequence (P51532 whole entry, the tested form may be a part) above

As for `Cc1cc([C@H](C(=O)N2C[C@H](O)C[C@H]2C(=O)N[C@@H](CC(=O)NCCCCCCCCCCn2cc(-c3cc(-c4ccccc4O)nnc3N)cn2)c2ccc(-c3scnc3C)cc2)C(C)C)on1`, the DC50 in assay [1] stood at 37 nM; in assay [3], 53 nM. Also, the results for the Emax in assay [2] and in assay [4] were 95% and 93%, respectively.

As to `Cc1ncsc1-c1ccc([C@H](C)NC(=O)[C@@H]2C[C@@H](O)CN2C(=O)[C@@H](NC(=O)COCCOCCOCCn2cc(-c3cc(-c4ccccc4O)nnc3N)cn2)C(C)C)cc1`, the DC50 in assay [1] is 455 nM; in assay [3] it was above 1000 nM. Further, the Emax was 71% in assay [2] and 47% in assay [4].

With `Cc1ncsc1-c1ccc([C@H](C)NC(=O)[C@@H]2C[C@@H](O)CN2C(=O)[C@@H](NC(=O)CCCn2cc(-c3cc(-c4ccccc4O)nnc3N)cn2)C(C)(C)C)cc1`, the values for the DC50 in assay [1] and in assay [3] were 132 nM and 463 nM, respectively. Moreover, the Emax worked out at 88% in assay [2] and 84% in assay [4].

On to `Cc1cc([C@H](C(=O)N2C[C@H](O)C[C@H]2C(=O)N[C@@H](CC(=O)NCCCCCCn2cc(-c3cc(-c4ccccc4O)nnc3N)cn2)c2ccc(-c3scnc3C)cc2)C(C)C)on1`, for which the DC50 was determined as 18 nM in assay [1] and 213 nM in assay [3]. Besides, the Emax in assay [2] amounted to 86%; in assay [4], 84%.

Consider `Cc1ncsc1-c1ccc([C@H](C)NC(=O)[C@@H]2C[C@@H](O)CN2C(=O)[C@@H](NC(=O)CCN2CCN(CCCn3cc(-c4cc(-c5ccccc5O)nnc4N)cn3)CC2)C(C)C)cc1`, for which the values for the DC50 in assay [1] and in assay [3] were 682 nM and 585 nM, respectively. The Emax in assay [2] is 62%; in assay [4], 76%.

`Cc1ncsc1-c1ccc([C@H](C)NC(=O)[C@@H]2C[C@@H](O)CN2C(=O)[C@@H](NC(=O)CCCCCCCCCCn2cc(-c3cc(-c4ccccc4O)nnc3N)cn2)C(C)(C)C)cc1`: the DC50 came to 6 nM in assay [1] and 47 nM in assay [3]. For the same compound, the Emax turned out to be 93% in assay [2] and 87% in assay [4].

Regarding `Cc1ncsc1-c1ccc([C@H](C)NC(=O)[C@@H]2C[C@@H](O)CN2C(=O)[C@@H](NC(=O)C2CCC(N3CC4(CCC(n5cc(-c6cc(-c7ccccc7O)nnc6N)cn5)CC4)C3)CC2)C(C)(C)C)cc1` (some centres not stated), the DC50 in assay [1] is 25 nM; in assay [3], above 1000 nM. Further, the Emax in assay [2] came out at 85%; in assay [4] it was 55%.

For the compound `Cc1cc([C@H](C(=O)N2C[C@H](O)C[C@H]2C(=O)N[C@@H](CC(=O)NCCCCCCCn2cc(-c3cc(-c4ccccc4O)nnc3N)cn2)c2ccc(-c3scnc3C)cc2)C(C)C)on1`, the values for the DC50 in assay [1] and in assay [3] were 96 nM and 91 nM, respectively. Further, the Emax in assay [2] was found to be 91%; in assay [4] it was 92%.

Take `Cc1cc([C@H](C(=O)N2C[C@H](O)C[C@H]2C(=O)N[C@@H](CC(=O)NCCCCCCCCCn2cc(-c3cc(-c4ccccc4O)nnc3N)cn2)c2ccc(-c3scnc3C)cc2)C(C)C)on1`: the DC50 in assay [1] worked out at 71 nM; in assay [3], 75 nM. Also, the Emax in assay [2] and in assay [4] was 94% each time.

With `Cc1ncsc1-c1ccc([C@H](C)NC(=O)[C@@H]2C[C@@H](O)CN2C(=O)[C@@H](NC(=O)CCCCCn2cc(-c3cc(-c4ccccc4O)nnc3N)cn2)C(C)(C)C)cc1`, the DC50 in assay [1] is 12 nM; in assay [3], above 1000 nM. The values for the Emax in assay [2] and in assay [4] were 93% and 73%, respectively.

As to `Cc1ncsc1-c1ccc([C@H](C)NC(=O)[C@@H]2C[C@@H](O)CN2C(=O)[C@@H](NC(=O)[C@H]2CC[C@H](CN3CCC4(CCC(n5cc(-c6cc(-c7ccccc7O)nnc6N)cn5)CC4)CC3)CC2)C(C)(C)C)cc1`, the figures for the DC50 in assay [1] and in assay [3] were 5 nM and 219 nM, respectively. For the same compound, the values for the Emax in assay [2] and in assay [4] were 90% and 66%, respectively.

As to `Cc1ncsc1-c1ccc([C@H](C)NC(=O)[C@@H]2C[C@@H](O)CN2C(=O)[C@@H](NC(=O)CCCCn2cc(-c3cc(-c4ccccc4O)nnc3N)cn2)C(C)(C)C)cc1`, the DC50 is 134 nM in assay [1] and above 1000 nM in assay [3]. The Emax was 85% in assay [2] and 57% in assay [4].

As for `Cc1ncsc1-c1ccc([C@H](C)NC(=O)[C@@H]2C[C@@H](O)CN2C(=O)[C@@H](NC(=O)CCCCCCCCCCCn2cc(-c3cc(-c4ccccc4O)nnc3N)cn2)C(C)(C)C)cc1`, the DC50 was 3 nM in assay [1] and 13 nM in assay [3]. The values for the Emax in assay [2] and in assay [4] were 95% and 96%, respectively.

In the case of `Cc1cc([C@H](C(=O)N2C[C@H](O)C[C@H]2C(=O)N[C@@H](CC(=O)NCCCCCCCCn2cc(-c3cc(-c4ccccc4O)nnc3N)cn2)c2ccc(-c3scnc3C)cc2)C(C)C)on1`, the DC50 was found to be 67 nM in assay [1] and 66 nM in assay [3]. For the same compound, the Emax is 91% in assay [2] and 93% in assay [4].

Take `Cc1ncsc1-c1ccc([C@H](C)NC(=O)[C@@H]2C[C@@H](O)CN2C(=O)[C@@H](NC(=O)CCOCCOCCn2cc(-c3cc(-c4ccccc4O)nnc3N)cn2)C(C)C)cc1`: the DC50 in assay [1] is 313 nM; in assay [3] it was above 1000 nM. Besides, the Emax in assay [2] turned out to be 77%; in assay [4], 59%.

In the case of `Cc1ncsc1-c1ccc([C@H](C)NC(=O)[C@@H]2C[C@@H](O)CN2C(=O)[C@@H](NC(=O)CCn2cc(-c3cc(-c4ccccc4O)nnc3N)cn2)C(C)(C)C)cc1`, the DC50 in assay [1] and in assay [3] was above 1000 nM throughout. Moreover, the Emax in assay [2] was found to be 19%; in assay [4] it was 0%.

On to `Cc1ncsc1-c1ccc([C@H](C)NC(=O)[C@@H]2C[C@@H](O)CN2C(=O)[C@@H](NC(=O)CCCCCCn2cc(-c3cc(-c4ccccc4O)nnc3N)cn2)C(C)(C)C)cc1`, for which the results for the DC50 in assay [1] and in assay [3] were 16 nM and 212 nM, respectively. In addition, the Emax turned out to be 89% in assay [2] and 81% in assay [4].

In the case of `Cc1ncsc1-c1ccc([C@H](C)NC(=O)[C@@H]2C[C@@H](O)CN2C(=O)[C@@H](NC(=O)CCCCCCCCn2cc(-c3cc(-c4ccccc4O)nnc3N)cn2)C(C)(C)C)cc1`, the DC50 in assay [1] is 3 nM; in assay [3], 31 nM. The results for the Emax in assay [2] and in assay [4] were 95% and 93%, respectively.

With `Cc1ncsc1-c1ccc([C@@H](C)NC(=O)[C@H]2C[C@H](O)CN2C(=O)[C@H](NC(=O)C2CCC(N3CCC4(CCC(n5cc(-c6cc(-c7ccccc7O)nnc6N)cn5)CC4)CC3)CC2)C(C)(C)C)cc1` (single isomer, unassigned), the values for the DC50 in assay [1] and in assay [3] were 34 nM and 315 nM, respectively. The results for the maximal response (Emax) in assay [2] and in assay [4] were 90% and 72%, respectively.

Turning to `Cc1cc([C@H](C(=O)N2C[C@H](O)C[C@H]2C(=O)N[C@@H](CC(=O)NCCCCCCCCCCCCn2cc(-c3cc(-c4ccccc4O)nnc3N)cn2)c2ccc(-c3scnc3C)cc2)C(C)C)on1`, the 50% degradation concentration (DC50) in assay [1] turned out to be 46 nM; in assay [3], 90 nM. For the same compound, the Emax in assay [2] was determined as 93%; in assay [4], 89%.

As to `Cc1ncsc1-c1ccc([C@H](C)NC(=O)[C@@H]2C[C@@H](O)CN2C(=O)[C@@H](NC(=O)CCN2CCC(CCCn3cc(-c4cc(-c5ccccc5O)nnc4N)cn3)CC2)C(C)C)cc1`, the DC50 in assay [1] and in assay [3] was above 1000 nM throughout. Further, the Emax in assay [2] was determined as 12%; in assay [4], 0%.

Turning to `Cc1ncsc1-c1ccc([C@H](C)NC(=O)[C@@H]2C[C@@H](O)CN2C(=O)[C@@H](NC(=O)CCCCCN2CCC(n3cc(-c4cc(-c5ccccc5O)nnc4N)cn3)CC2)C(C)(C)C)cc1`, the results for the DC50 in assay [1] and in assay [3] were 6 nM and 248 nM, respectively. Moreover, the values for the Emax in assay [2] and in assay [4] were 94% and 77%, respectively.

As to `Cc1ncsc1-c1ccc([C@H](C)NC(=O)[C@@H]2C[C@@H](O)CN2C(=O)[C@@H](NC(=O)CCCCCCCn2cc(-c3cc(-c4ccccc4O)nnc3N)cn2)C(C)(C)C)cc1`, the DC50 in assay [1] was 3 nM; in assay [3], 23 nM. Further, the Emax in assay [2] was found to be 95%; in assay [4], 90%.

The DC50 is the concentration giving 50% degradation. The Emax is the maximal effect, on the per cent scale that the assay sets.
